# Results as given in publication PMC7367283, “A PIP2 substitute mediates voltage sensor-pore coupling in KCNQ activation” (Communications Biology, 2020).
# Target: T1, Kir1.1 (Homo sapiens, UniProt P48048)
# T1 sequence (P48048 1-391): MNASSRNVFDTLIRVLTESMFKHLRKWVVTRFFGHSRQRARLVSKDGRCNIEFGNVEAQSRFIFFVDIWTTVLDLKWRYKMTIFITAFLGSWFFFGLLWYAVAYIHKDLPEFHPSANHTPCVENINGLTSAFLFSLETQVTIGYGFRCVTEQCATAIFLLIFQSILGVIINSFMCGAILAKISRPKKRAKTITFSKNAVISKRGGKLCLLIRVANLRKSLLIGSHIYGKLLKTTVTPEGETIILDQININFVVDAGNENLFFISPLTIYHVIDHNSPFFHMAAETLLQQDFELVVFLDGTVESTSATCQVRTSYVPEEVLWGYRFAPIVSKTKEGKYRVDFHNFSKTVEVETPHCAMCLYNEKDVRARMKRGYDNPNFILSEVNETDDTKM
# Assay: Two-electrode voltage clamp of Kir1.1 in Xenopus oocytes
# Format: cell-based
# Conditions: 10 µM CP1; for Current (Fig. 6b): mean
# From the text: Since CP1 has a similar effect to PIP2 in mediating VSD-pore coupling in KCNQ channels, we tested if CP1 has effects on other ion channels that are also sensitive to PIP2 or are voltage activated and share general structural features of the VSD and the pore with KCNQ. […] On the other hand, NaV1.5 and KV4.2 are voltage-gated ion channels.
# Fig. 6 Effects of CP1 on other ion channels expressed in Xenopus oocytes. a Currents of Kir1.1, CaV1.2, NaV1.5, hERG, and KV4.2 before and after application of 10 µM CP1, respectively. The voltages for holding, test, and returning pulses were Kir1.1, 0 mV, −100 to +60 mV, 0; CaV1.2, −100 mV, −100 to +60, −100 mV; NaV1.5, −100, −120 to +40 mV, −120 mV; hERG, −80 mV, −90 to +60 mV, −60 mV; KV4.2, −80 mV, −100 mV to +80 mV, −40 mV; HCN4, −30 mV, −30 to −140 mV, −120 mV. b Current–voltage relations of Kir1.1 channel in the absence or presence of 10 µM CP1 (n = 7). c–g G–V relations of indicated channels with and without 10 µM CP1. The ΔV1/2 of G–V relations (mV) are CaV1.2, 3.38 ± 0.71 mV (c); NaV1.5, −2.26 ± 0.95 mV (d); hERG, 6.85 ± 1.81 mV (e); KV 4.2, −2.26 ± 2.88 mV (f); HCN4, 17.13 ± 1.59 mV (g).
# Complementary DNA (cDNA) encoding human KCNQ1 (UniProtKB/Swiss‐Prot under accession no. P51787), KCNQ2 (O43526), KCNQ3 (O43525), KCNE1 (P15382), Kir1.1 (P48048), hERG (Q12809), KV4.2 (Q63881), NaV1.5 (Q14524), NaV β1 (Q07699), CaV1.2 (Q13936), CaV β1a (Q02641), CaV α2/δ1 (P54289), and HCN4 (Q9Y3Q4) were subcloned into oocyte expression vectors, respectively. Site-directed mutations of the KCNQ1 channel were all produced by overlap extension polymerase chain reaction (PCR) with high-fidelity Pfu polymerase (Stratagene, CA). The presence of the desired mutation was verified by sequencing the PCR-amplified regions. All the primer sequences used in this study are available in Supplementary Table 1. The complementary RNA (cRNA) of all these channels and mutations was transcribed in vitro with the T3, T7, or SP6 polymerase mMessage mMachine kit (Invitrogen, Thermo Fisher Scientific, MO).
# The whole-oocyte ionic currents were recorded with a GeneClamp 500B amplifier (Axon Instruments, CA) or iTEV90 amplifier (HEKA, Germany) and then sampled at 1 kHz and low-pass-filtered at 2 kHz. The Patchmaster software (HEKA, Germany) was used to acquire data. The Kir1.1 current was recorded with a high K^+ bath solution containing (in mM) 96 KCl, 4 NaCl, 1 CaCl2, 2 MgCl2, and 10 HEPES, pH 7.3–7.4. The HCN4 current was recorded in ND66 solution containing (in mM) 66 NaCl, 32 KCl, 1.8 CaCl2, 1 MgCl2, and 5 HEPES, pH 7.6. All the other potassium channels were recorded in ND96 solution. The currents of CaV1.2 channel were recorded in 40 mM Ba^2+ bath solution containing (in mM) 40 Ba(OH)2, 50 TEA-OH, 2 KOH, and 5 HEPES, adjusted to pH 7.4 with methanesulfonic acid. CP1 (DISODIUM 5-BROMO-2-[9-CHLORO-3-(SULFONATOOXY) NAPHTHO [1,2-B] THIEN-2-YL]-1H-INDOL-3-YL SULFATE, Sigma-Aldrich, MO) and Chromanol 293B (Sigma-Aldrich, MO) were dissolved in bath solutions. All the chemicals were purchased from Sigma-Aldrich. To measure the I–V relations of the Kir1.1 channel, the test voltage was set from −100 to +60 mV for 1 s with 20-mV increments. The test pulses were stepped from a holding potential of 0 mV and then stepped back to 0 mV. The HCN4 currents were recorded by a test pulse between −30 and −140 mV in 10-mV step from a holding potential of −30 mV. For all the other potassium channels and CaV1.2 channel, the holding potential was −80 or −100 mV, and the test pulse was applied with 10-mV increment, which was followed with a repolarization pulse at −40 mV before returning to the holding potential. The durations of test and the repolarization pulse vary for different channels to allow the activation and deactivation of the channel to reach their steady states.
structure (smiles),measurement,setting,value
"O=S(=O)([O-])Oc1c(-c2sc3c(ccc4cccc(Cl)c43)c2OS(=O)(=O)[O-])[nH]c2ccc(Br)cc12.[Na+].[Na+] [CP1, DISODIUM 5-BROMO-2-[9-CHLORO-3-(SULFONATOOXY) NAPHTHO [1,2-B] THIEN-2-YL]-1H-INDOL-3-YL SULFATE]",effect on currents of Kir1.1,,little effect
same,Current (Fig. 6b),voltage 0 mV,-0.8738 µA
same,Current (Fig. 6b),voltage 20 mV,8.1285 µA
same,Current (Fig. 6b),voltage 40 mV,17.0203 µA
same,Current (Fig. 6b),voltage 60 mV,25.9074 µA
same,Current (Fig. 6b),voltage -20 mV,-9.7186 µA
same,Current (Fig. 6b),voltage -40 mV,-18.5616 µA
same,Current (Fig. 6b),voltage -60 mV,-27.3089 µA
same,Current (Fig. 6b),voltage -80 mV,-36.1588 µA
same,Current (Fig. 6b),voltage -100 mV,-44.9245 µA
